Experimental data as given in PubChem BioAssay (NCI).
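Assay format: 96-well plates, 48-hour exposure. At the GI50, growth is halved. The concentration for full growth arrest is given as TGI.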

Experiments:
Experiment in all cases: NCI tumour cell line growth inhibition, 48 h
DMS 114 small cell lung = system: DMS 114 small cell lung
RXF-631 renal = system: RXF-631 renal
XF 498 CNS = system: XF 498 CNS
M19-MEL melanoma = system: M19-MEL melanoma
KM20L2 colon = system: KM20L2 colon
LXFL 529 NSCLC = system: LXFL 529 NSCLC
MDA-N = system: MDA-N
MDA-MB-435 = system: MDA-MB-435
NCI/ADR-RES ovarian = system: NCI/ADR-RES ovarian
SN12K1 renal = system: SN12K1 renal
P388/ADR leukemia = system: P388/ADR leukemia
P388 leukemia = system: P388 leukemia

Compound | TGI (DMS 114 small cell lung) [µM] | TGI (RXF-631 renal) [µM] | TGI (XF 498 CNS) [µM] | TGI (M19-MEL melanoma) [µM] | TGI (KM20L2 colon) [µM] | TGI (LXFL 529 NSCLC) [µM] | TGI (MDA-N) [µM] | TGI (MDA-MB-435) [µM] | TGI (NCI/ADR-RES ovarian) [µM] | GI50 (MDA-N) [µM] | TGI (SN12K1 renal) [µM] | TGI (P388/ADR leukemia) [µM] | TGI (P388 leukemia) [µM] | GI50 (MDA-MB-435) [µM]
FC1OC2OC1C(OCc1ccccc1)C(OCc1ccccc1)C2OCc1ccccc1 (configuration not stated) | > 100 | > 100 | > 100 | > 100 | > 100 | > 100 |  |  |  |  |  |  |  | 
CC(=O)C1C(=O)N(C(C)C)C[C@@H]2CCC(=O)C[C@H]12 (some centres not stated) | > 100 | > 100 | > 100 | > 100 |  | > 100 |  |  |  |  |  |  |  | 
CNC(=O)CN(CC(N)=O)C(N)=O |  | > 100 | > 100 | > 100 | > 100 | > 100 |  |  |  |  |  |  |  | 
COc1ccc(S(=O)(=O)N(C)CC(=O)O)cc1 |  | > 100 | > 100 | > 100 | > 100 | > 100 |  |  |  |  |  |  |  | 
CC1CC[C@]2(C(=O)O)CCC3(C)C(=CCC4[C@@]5(C)CC[C@H](OS(=O)(=O)c6ccccc6)C(C)(C)C5CC[C@]43C)[C@@H]2[C@H]1C (some centres not stated) | > 100 | > 100 | > 100 | > 100 |  | > 100 |  |  |  |  |  |  |  | 
O=C1c2ccccc2C(=O)c2nc3ccc(Cl)cc3cc21 | > 100 | > 100 | > 100 | > 100 | > 100 | > 100 |  |  |  |  |  |  |  | 
COc1cccc(NC(=O)C(=O)C(C(C)=O)c2nc3ccc(Cl)cc3[nH]c2=O)c1 (configuration not stated) | > 100 | > 100 |  | > 100 | > 100 | > 100 |  |  |  |  |  |  |  | 
O=C(c1ccc(Cl)cc1)C1OC12C(=O)Nc1ccccc12 (configuration not stated) | 26.2 | 34.7 | 25 | 23.3 | 41.3 | 11.8 | 14.5 | 35.5 |  |  |  |  |  | 
COc1ccc2nc3ccccc3c(NCCCCN(C)CCCl)c2c1 |  | 0.367 | 0.293 | 0.602 | 0.478 | 0.189 |  | 0.325 |  |  |  |  |  | 
CCOC(=O)[C@H]1Nc2ccccc2C2c3ccccc3CC21 (some centres not stated) | > 100 | > 100 | > 100 | > 100 | > 100 | > 100 |  |  |  |  |  |  |  | 
COc1ccc(CCc2cc(OC)c(OC)c(OC)c2)cc1 | 0.323 | 4.45 | 20.6 | > 100 | 0.049 | 21 | 0.021 | 0.0345 | > 100 |  |  |  |  | 
C/C(CC(=O)N(C(C)C)C(C)C)=N\NC(=O)c1ccncc1 |  | > 100 | > 100 | > 100 | > 100 | > 100 |  |  |  |  |  |  |  | 
COc1ccc(CCN=C2CCC(C(=O)NCCc3ccc(OC)c(OC)c3)N2)cc1OC (configuration not stated) | > 100 | > 100 | > 100 |  | > 100 | > 100 |  |  |  |  |  |  |  | 
Cc1cc(Cl)cc2c1NC(=O)C2=O (tested in a mixture with another compound) | 72.1 |  | 62.4 | 28.8 | > 100 | > 100 |  |  |  |  |  |  |  | 
Nc1ccc(S(=O)(=O)Nc2cnc3c(Cl)cccc3n2)cc1 | 202 |  | 719 | > 625 | > 750 |  | > 566 | > 750 | 629 | > 66.9 | 472 | > 750 | > 750 | 31.5
CN1CCc2c1nc(-c1ccc([N+](=O)[O-])cc1)c1c2N(C)CC1 | > 100 | > 100 | > 100 | > 100 | > 100 | > 100 |  |  |  |  |  |  |  | 
COc1cc(/C=C(\C#N)C(N)=C(C#N)C#N)cc(O)c1O | > 100 |  | > 100 | > 100 | > 100 | > 100 | > 100 | > 100 | > 100 |  |  |  |  | 
CCOC(=O)C1COc2cc(-c3cc(=O)c4ccccc4o3)ccc2O1 (configuration not stated) | > 100 |  | 96.9 | > 100 | > 100 | > 100 |  |  |  |  |  |  |  | 
COC(=O)/C(=N/NC(N)=O)C(C(=O)OC)C(=O)C(=O)Nc1ccc(Cl)cc1 (configuration not stated) | > 100 |  | > 100 | > 100 | > 100 | > 100 |  |  |  |  |  |  |  | 
CCCCCCCCCCCCCCCCOC(=O)c1cc(O)cc(C(=O)OCCCCCCCCCCCCCCCC)c1 | > 100 | > 100 |  | > 100 | > 100 | > 100 |  |  |  |  |  |  |  | 
CCCCCCCCCCCCCc1nn[nH]n1 | 38.4 | 29.3 |  | 36.8 | 37.4 | 31.2 |  |  |  |  |  |  |  | 
COc1cc2c(c(OC)c1OC)-c1ccc(SC)c(=O)cc1[C@@H](NC(=O)c1ccc(Cl)cc1)CC2 |  | > 100 |  | > 100 | < 0.01 | 0.169 |  |  |  |  |  |  |  | 
COc1ccccc1NC(=O)C(CC(C(=O)Nc1ccccc1OC)/C(C)=N/Nc1ccc([N+](=O)[O-])cc1[N+](=O)[O-])/C(C)=N/Nc1ccc([N+](=O)[O-])cc1[N+](=O)[O-] (configuration not stated) |  | > 100 | > 100 | > 100 | > 100 | > 100 |  |  |  |  |  |  |  | 
O=C(Nc1cccc(NC(=O)c2cc(=O)c3ccccc3o2)n1)c1cc(=O)c2ccccc2o1 | 92 | > 100 |  | > 100 | > 100 | > 100 |  |  |  |  |  |  |  | 
CCOc1ccc(C(CN2CCOCC2)C(C)=O)cc1OC (configuration not stated) | 34 |  | 40.8 | 34.1 | 35 | 17 |  |  |  |  |  |  |  | 
COC(=O)CC(C(C(C)=O)C(=O)OCc1ccccc1)N1C(=O)OCC1c1ccccc1 (configuration not stated) | > 100 | > 100 | > 100 | > 100 | > 100 | > 100 |  |  |  |  |  |  |  | 
O=S(=O)(c1ccc(O)c(C=Nc2ccc(Cl)cc2)c1)c1ccc(O)c(C=Nc2ccc(Cl)cc2)c1 | > 100 | > 100 |  | > 100 | > 100 | > 100 |  |  |  |  |  |  |  | 
